Results from US11877574B2, “Herbicidal oil dispersion and method” (Arysta LifeScience Inc., priority 2018, dated 2024).

Legend:
[1] = Active ingredient assay and recovery on storage (Table 2); format: physicochemical
[2] = Active ingredient assay on storage, SCB239-12 (Table 3); format: physicochemical

CCCCCCC(C)OC(=O)COc1nc(F)c(Cl)c(N)c1Cl (centres unmarked) [Fluroxypyr, Fluroxypyr Meptyl]
Assay (% w/w) ([1]; 1 month storage, 0° C.): 11.47 % w/w
Assay (% w/w) ([1]; 1 month storage, 40° C.): 11.50 % w/w
Assay (% w/w) ([1]; 1 month storage, T/C): 11.52 % w/w
Assay (% w/w) ([1]; 1 month storage, −10° C.): 11.49 % w/w
Assay (% w/w) ([1]; 2 month storage, 0° C.): 11.56 % w/w
Assay (% w/w) ([1]; 2 month storage, 40° C.): 11.56 % w/w
Assay (% w/w) ([1]; 2 month storage, T/C): 11.55 % w/w
Assay (% w/w) ([1]; 2 month storage, −10° C.): 11.55 % w/w
Assay (% w/w) ([1]; 2 wks, 54° C.): 11.63 % w/w
Assay (% w/w) ([1]; 3 month storage, 0° C.): 11.63 % w/w
Assay (% w/w) ([1]; 3 month storage, 25° C.): 11.68 % w/w
Assay (% w/w) ([1]; 3 month storage, 40° C.): 11.69 % w/w
Assay (% w/w) ([1]; 3 month storage, T/C): 11.71 % w/w
Assay (% w/w) ([1]; 3 month storage, −10° C.): 11.71 % w/w
Assay (% w/w) ([1]; 6 month storage, 25° C.): 11.36 % w/w
Assay (% w/w) ([1]; 9 month storage, 25° C.): 11.56 % w/w
Assay (% w/w) ([1]; 12 month storage, 25° C.): 11.63 % w/w
Assay (% w/w) ([1]; F/T Sample): 11.61 % w/w
Assay (% w/w) ([1]; initial): 11.60 % w/w
Assay (% w/w) ([2]; 1 month storage, 0° C.): 11.25 % w/w
Recovery of active ingredient (% of initial assay) ([2]; 1 month storage, 0° C.): 99.37 % w/w
Assay (% w/w) ([2]; 1 month storage, 40° C.): 11.24 % w/w
Recovery of active ingredient (% of initial assay) ([2]; 1 month storage, 40° C.): 99.33 % w/w
Assay (% w/w) ([2]; 1 month storage, T/C): 11.25 % w/w
Recovery of active ingredient (% of initial assay) ([2]; 1 month storage, T/C): 99.36 % w/w
Assay (% w/w) ([2]; 2 month storage, 0° C.): 11.19 % w/w
Recovery of active ingredient (% of initial assay) ([2]; 2 month storage, 0° C.): 98.83 % w/w
Assay (% w/w) ([2]; 2 month storage, 40° C.): 11.13 % w/w
Recovery of active ingredient (% of initial assay) ([2]; 2 month storage, 40° C.): 98.36 % w/w
Assay (% w/w) ([2]; 2 month storage, T/C): 11.17 % w/w
Recovery of active ingredient (% of initial assay) ([2]; 2 month storage, T/C): 98.68 % w/w
Assay (% w/w) ([2]; 2 wks, 54° C.): 11.26 % w/w
Recovery of active ingredient (% of initial assay) ([2]; 2 wks, 54° C.): 99.48 % w/w
Assay (% w/w) ([2]; 3 month storage, 0° C.): 11.23 % w/w
Recovery of active ingredient (% of initial assay) ([2]; 3 month storage, 0° C.): 99.21 % w/w
Assay (% w/w) ([2]; 3 month storage, 25° C.): 11.20 % w/w
Recovery of active ingredient (% of initial assay) ([2]; 3 month storage, 25° C.): 98.92 % w/w
Assay (% w/w) ([2]; 3 month storage, 40° C.): 11.21 % w/w
Recovery of active ingredient (% of initial assay) ([2]; 3 month storage, 40° C.): 99.04 % w/w
Assay (% w/w) ([2]; 3 month storage, −10° C.): 11.13 % w/w
Recovery of active ingredient (% of initial assay) ([2]; 3 month storage, −10° C.): 98.30 % w/w
Assay (% w/w) ([2]; F/T sample): 11.28 % w/w
Recovery of active ingredient (% of initial assay) ([2]; F/T sample): 99.68 % w/w
Assay (% w/w) ([2]; Initial): 11.32 % w/w
